Experimental data: ChEMBL document CHEMBL2073929, “Interactions of rifamycin SV and rifampicin with organic anion uptake systems of human liver” (Hepatology, 2002)

T1: Solute carrier organic anion transporter family member 2B1 (Homo sapiens, UniProt O94956)
T1 sequence (O94956 whole entry): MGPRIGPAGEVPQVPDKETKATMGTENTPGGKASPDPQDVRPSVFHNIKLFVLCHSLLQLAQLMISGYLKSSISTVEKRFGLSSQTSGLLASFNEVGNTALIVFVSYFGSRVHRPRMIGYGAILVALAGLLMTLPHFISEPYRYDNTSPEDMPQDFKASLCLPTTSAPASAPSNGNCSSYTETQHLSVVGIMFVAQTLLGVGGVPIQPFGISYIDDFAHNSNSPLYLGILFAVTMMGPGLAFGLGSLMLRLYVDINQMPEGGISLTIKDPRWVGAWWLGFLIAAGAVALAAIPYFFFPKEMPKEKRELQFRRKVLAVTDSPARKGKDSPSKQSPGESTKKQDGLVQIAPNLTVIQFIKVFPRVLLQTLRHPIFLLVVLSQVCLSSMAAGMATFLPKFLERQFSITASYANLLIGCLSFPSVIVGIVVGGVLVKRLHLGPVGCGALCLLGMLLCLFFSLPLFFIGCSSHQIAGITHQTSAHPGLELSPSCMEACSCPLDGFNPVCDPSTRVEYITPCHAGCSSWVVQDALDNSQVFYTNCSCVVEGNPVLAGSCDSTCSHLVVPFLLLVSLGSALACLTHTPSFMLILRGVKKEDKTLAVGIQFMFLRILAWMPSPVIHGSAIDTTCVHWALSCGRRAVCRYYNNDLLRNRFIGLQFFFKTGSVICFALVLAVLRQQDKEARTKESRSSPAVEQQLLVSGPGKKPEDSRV

T2: Solute carrier organic anion transporter family member 1A2 (Homo sapiens, UniProt P46721)
T2 sequence (P46721 whole entry): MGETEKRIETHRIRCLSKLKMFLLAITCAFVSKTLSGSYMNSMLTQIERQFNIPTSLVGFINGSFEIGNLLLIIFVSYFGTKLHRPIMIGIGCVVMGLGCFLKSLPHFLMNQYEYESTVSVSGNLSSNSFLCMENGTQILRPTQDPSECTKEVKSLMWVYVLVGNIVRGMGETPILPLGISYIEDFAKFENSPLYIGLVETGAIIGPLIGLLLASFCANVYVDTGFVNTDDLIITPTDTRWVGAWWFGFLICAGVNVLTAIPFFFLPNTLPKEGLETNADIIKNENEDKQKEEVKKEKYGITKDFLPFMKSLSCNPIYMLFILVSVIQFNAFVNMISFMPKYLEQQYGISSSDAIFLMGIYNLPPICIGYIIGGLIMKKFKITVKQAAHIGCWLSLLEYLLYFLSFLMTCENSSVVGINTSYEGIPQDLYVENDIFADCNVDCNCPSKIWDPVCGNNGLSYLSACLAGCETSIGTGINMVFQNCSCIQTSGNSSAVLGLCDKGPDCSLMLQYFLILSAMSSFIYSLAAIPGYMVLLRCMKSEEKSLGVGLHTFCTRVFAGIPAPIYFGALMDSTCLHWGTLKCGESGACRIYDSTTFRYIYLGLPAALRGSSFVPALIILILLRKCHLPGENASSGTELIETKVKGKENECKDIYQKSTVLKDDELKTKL

T3: Solute carrier organic anion transporter family member 1B3 (OATP1B3) (Homo sapiens, UniProt Q9NPD5)
T3 sequence (Q9NPD5 whole entry): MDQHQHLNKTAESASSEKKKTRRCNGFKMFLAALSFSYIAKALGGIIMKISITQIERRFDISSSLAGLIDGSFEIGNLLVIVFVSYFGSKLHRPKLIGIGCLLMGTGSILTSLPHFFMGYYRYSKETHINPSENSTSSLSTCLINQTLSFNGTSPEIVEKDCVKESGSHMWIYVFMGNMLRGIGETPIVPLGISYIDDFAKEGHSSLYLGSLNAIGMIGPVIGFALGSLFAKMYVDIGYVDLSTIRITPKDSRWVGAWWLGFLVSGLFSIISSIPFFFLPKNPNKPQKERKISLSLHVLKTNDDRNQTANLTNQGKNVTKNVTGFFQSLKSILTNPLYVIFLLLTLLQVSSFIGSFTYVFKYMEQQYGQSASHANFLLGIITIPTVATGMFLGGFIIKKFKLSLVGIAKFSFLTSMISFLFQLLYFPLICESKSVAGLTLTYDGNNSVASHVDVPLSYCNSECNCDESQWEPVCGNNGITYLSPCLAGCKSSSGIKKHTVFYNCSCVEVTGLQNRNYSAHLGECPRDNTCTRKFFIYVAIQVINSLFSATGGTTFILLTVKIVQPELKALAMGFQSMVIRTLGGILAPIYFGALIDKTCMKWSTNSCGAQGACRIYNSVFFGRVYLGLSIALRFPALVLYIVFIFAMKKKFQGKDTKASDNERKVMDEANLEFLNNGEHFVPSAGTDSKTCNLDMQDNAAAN

T4: Solute carrier organic anion transporter family member 1B3 (Homo sapiens, UniProt Q9NPD5)
T4 sequence (Q9NPD5 whole entry): T3 sequence (Q9NPD5 whole entry)

T5: Solute carrier organic anion transporter family member 1B1 (Homo sapiens, UniProt Q9Y6L6)
T5 sequence (Q9Y6L6 whole entry): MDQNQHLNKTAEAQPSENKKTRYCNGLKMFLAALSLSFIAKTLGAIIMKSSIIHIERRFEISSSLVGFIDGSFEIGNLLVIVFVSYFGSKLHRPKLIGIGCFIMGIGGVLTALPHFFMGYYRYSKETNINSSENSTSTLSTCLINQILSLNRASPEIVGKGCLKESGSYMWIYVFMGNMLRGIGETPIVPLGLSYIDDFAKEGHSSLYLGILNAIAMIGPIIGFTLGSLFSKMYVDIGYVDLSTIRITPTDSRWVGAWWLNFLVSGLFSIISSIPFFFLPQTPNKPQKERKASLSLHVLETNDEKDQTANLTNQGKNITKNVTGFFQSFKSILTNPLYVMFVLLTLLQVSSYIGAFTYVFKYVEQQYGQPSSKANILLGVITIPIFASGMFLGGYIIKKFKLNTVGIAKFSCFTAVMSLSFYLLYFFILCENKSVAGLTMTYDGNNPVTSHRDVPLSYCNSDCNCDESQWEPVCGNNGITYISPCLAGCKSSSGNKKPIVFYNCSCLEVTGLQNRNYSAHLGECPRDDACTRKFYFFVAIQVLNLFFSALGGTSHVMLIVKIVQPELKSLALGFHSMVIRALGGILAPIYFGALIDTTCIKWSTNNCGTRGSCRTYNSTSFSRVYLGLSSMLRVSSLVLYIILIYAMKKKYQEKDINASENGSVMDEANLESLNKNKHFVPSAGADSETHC

B1: Solute carrier organic anion transporter family member 1B1 (Homo sapiens) (protein)
chain: T5 sequence (Q9Y6L6 whole entry)

Columns and labels:
[1] = target: T1, Solute carrier organic anion transporter family member 2B1; test: (§1) TP_TRANSPORTER: uptake in Xenopus laevis oocytes; type: functional, cell-based; conditions: oocyte
[2] = target: T2, Solute carrier organic anion transporter family member 1A2; test: as §1; type: functional, cell-based; conditions: oocyte
[3] = target: T3, Solute carrier organic anion transporter family member 1B3 (OATP1B3); test: as §1; type: functional, cell-based, Oocyte; conditions: Xenopus laevis oocytes expressing the transporter
[4] = target: T2, Solute carrier organic anion transporter family member 1A2; test: (§2) TP_TRANSPORTER: inhibition of BSP uptake in Xenopus laevis oocytes; type: functional, cell-based, Oocyte
[5] = target: T4, Solute carrier organic anion transporter family member 1B3; test: as §2; type: functional, cell-based, Oocyte
[6] = target: T5, Solute carrier organic anion transporter family member 1B1; test: as §2; type: functional, cell-based, Oocyte
[7] = target: T1, Solute carrier organic anion transporter family member 2B1; test: as §2; type: functional, cell-based, Oocyte
[8] = substrate: CO[C@H]1/C=C/O[C@@]2(C)Oc3c(C)c(O)c4c(O)c(c(/C=N/N5CCN(C)CC5)c(O)c4c3C2=O)NC(=O)/C(C)=C\C=C\[C@H](C)[C@H](O)[C@@H](C)[C@@H](O)[C@@H](C)[C@H](OC(C)=O)[C@@H]1C; test: as §1; type: functional, cell-based, Oocyte

| Molecule | Activity [1] | Activity [2] | Km [3] [µM] | Ki [4] [µM] | Ki [5] [µM] | Ki [6] [µM] | Ki [7] [µM] | Km [8] [µM] |
| --- | --- | --- | --- | --- | --- | --- | --- | --- |
| CO[C@H]1/C=C/O[C@@]2(C)Oc3c(C)c(O)c4c(O)c(c(/C=N/N5CCN(C)CC5)c(O)c4c3C2=O)NC(=O)/C(C)=C\C=C\[C@H](C)[C@H](O)[C@@H](C)[C@@H](O)[C@@H](C)[C@H](OC(C)=O)[C@@H]1C [RIFAMPIN] | is not a substrate [-] | is not a substrate [-] | 2.3 | 51 | 5 | 17 |  |  |
| CO[C@H]1/C=C/O[C@@]2(C)Oc3c(C)c(O)c4c(O)c(cc(O)c4c3C2=O)NC(=O)/C(C)=C\C=C\[C@H](C)[C@H](O)[C@@H](C)[C@@H](O)[C@@H](C)[C@H](OC(C)=O)[C@@H]1C [RIFAMYCIN] |  |  |  | 11 | 3 | 2 | 3 |  |
| B1 |  |  |  |  |  |  |  | 13 |
